Test results as given in US20050101595A1, “N-containing cycloalkyl-substituted amino-thiazole derivatives and pharmaceutical compositions for inhibiting cell proliferation and methods for their use” (PFIZER INC., priority 2003, published 2005).
Counter-ions that a name gives are not always drawn. Like-named read-outs stand apart in the source and are kept apart here.

How the values were obtained:
[1] = biological target: human CDK4 and genetically truncated (1-264) cyclin D3 (Homo sapiens, UniProt P11802); assay: Inhibition of CDK4/Cyclin D Retinoblastoma Kinase Activity; assay type: biochemical; conditions: for Ki: apparent Ki, CDK4/truncated cyclin D3, Rb fragment substrate, 25 μM ATP
Sequence of human CDK4 and genetically truncated (1-264) cyclin D3 (P11802 whole entry, the tested form may be a part): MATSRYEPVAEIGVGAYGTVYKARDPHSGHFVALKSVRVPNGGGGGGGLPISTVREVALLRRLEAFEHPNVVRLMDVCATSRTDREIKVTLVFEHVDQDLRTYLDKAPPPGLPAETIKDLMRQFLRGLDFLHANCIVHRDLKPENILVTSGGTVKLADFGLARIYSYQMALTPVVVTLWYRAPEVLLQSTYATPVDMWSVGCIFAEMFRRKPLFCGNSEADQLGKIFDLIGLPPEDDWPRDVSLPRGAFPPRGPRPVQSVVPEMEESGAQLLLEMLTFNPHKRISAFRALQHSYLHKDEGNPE
Sequence of human CDK4 and genetically truncated (1-264) cyclin D3 (P30281 1-264 partner): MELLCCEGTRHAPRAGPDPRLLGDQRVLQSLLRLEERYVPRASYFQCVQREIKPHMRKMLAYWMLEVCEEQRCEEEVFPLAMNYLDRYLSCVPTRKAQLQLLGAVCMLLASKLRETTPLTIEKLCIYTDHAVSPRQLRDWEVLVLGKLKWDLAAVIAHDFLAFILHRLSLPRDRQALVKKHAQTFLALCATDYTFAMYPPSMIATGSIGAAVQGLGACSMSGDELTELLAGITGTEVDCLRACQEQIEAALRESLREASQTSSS
Method in brief: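 Read-out: 32P/33P incorporation into Rb fragment (386-928) captured on nitrocellulose, phosphorimager. Enzyme 5 nM CDK4/cyclin D3(1-264) from insect cells; ATP 25 μM, pH 7.4, 30 °C, 20 min (60 min for tight binders). Ki from competitive fits.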

HCT-116 cell line = assay: Inhibition of cell growth, tetrazolium salt (MTT) assay; assay type: cell-based; conditions: for HCT-116 % Inhibition at 0.25 μM: 0.25 μM compound; for IC50: Homo sapiens, HCT-116, 120 h, MTT, three to five days, read-out: HCT-116 IC50
Method in brief: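 HCT-116 cells in McCoy's 5A medium received compound 4 h after plating (0.5% v/v DMSO) and were incubated three to five days at 37° C, 5% CO2. MTT (0.2 mg/mL final) then added for 4 h; DMSO-solubilized formazan read at 540 nm against 0.5% DMSO-treated controls.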

CDK2/Cyclin A = CDK2/Cyclin A (Homo sapiens, UniProt P24941); assay: Inhibition of CDK2/Cyclin A Retinoblastoma Kinase Activity; assay type: biochemical; conditions: for Ki: apparent Ki, CDK2/proteolyzed cyclin A, Rb fragment substrate, 25 μM ATP; for CDK2 % Inhibition At 0.03 μM: Table 2
Method in brief: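 Human CDK2, baculovirus/insect-cell expressed, complexed with proteolyzed cyclin A (10 nM or 19 nM CDK2) phosphorylates an Rb fragment with 25 μM [32P/33P]ATP at pH 7.4, 30° C, for 60 or 75 minutes under initial-rate conditions. Filter-captured radioactivity is read by phosphorimager; apparent Ki from competitive-inhibition fits.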

## Nc1nc(NC2CCN(C(=O)c3ccc(I)cc3)CC2)sc1C(=O)c1c(F)cccc1F [Example Q53]
[1]; 0.03 μM compound, Table 4
  CDK4 % Inhibition at 0.03 μM: 83%
HCT-116 cell line; 0.1 μM compound, HCT-116, Table 4
  HCT-116 % Inhibition at 0.1 μM: 0%
HCT-116 cell line; HCT-116, Table 4
  HCT-116 % Inhibition at 0.25 μM: 22%
CDK2/Cyclin A; 0.03 μM compound, Table 4
  CDK2 % Inhibition at 0.03 μM: 60%

## CN1CCN(c2ncc(S(=O)(=O)N3CCC(Nc4nc(N)c(C(=O)c5c(F)cccc5F)s4)CC3)cn2)CC1 [Example G34, (4-Amino-2-{1-[2-(4-methyl-piperazin-1-yl)-pyrimindine-5-sulfonyl]-piperidin-4-ylamino}-thiazol-5-yl)-(2,6-difluoro-phenyl)-methanone Hydrochloride Salt]
[1]
  Ki: 0.57 nM
HCT-116 cell line; first HCT-116 column (c4)
  IC50: 40 nM
HCT-116 cell line; second HCT-116 column (c5)
  IC50: 250 nM
CDK2/Cyclin A
  Ki: 0.82 nM

## Nc1nc(NC2CCN(C(=O)NC(=O)Oc3ccccc3)CC2)sc1C(=O)c1c(F)cccc1F [Example O62]
[1]; 0.03 μM compound, Table 2
  CDK4 % Inhibition at 0.03 μM: 18%
HCT-116 cell line; HCT-116, Table 2
  HCT-116 % Inhibition at 0.25 μM: 41%
CDK2/Cyclin A; 0.03 μM compound
  CDK2 % Inhibition At 0.03 μM: 36%

## Nc1nc(NC2CCN(C(=O)COc3cc(Cl)c(Cl)cc3Cl)CC2)sc1C(=O)c1c(F)cccc1F [Example R12]
[1]; at 0.03 μM
  CDK4 % Inhibition at 0.03 μM: 23%
HCT-116 cell line; HCT-116 cells, at 0.1 μM
  HCT-116 % Inhibition at 0.1 μM: 0%
HCT-116 cell line; HCT-116 cells
  HCT-116 5 Inhibition at 0.25 μM: 48
CDK2/Cyclin A; at 0.03 μM
  CDK2 % Inhibition at 0.03 μM: −10%

## Nc1nc(NC2CCN(C(=O)NCCc3ccccc3)CC2)sc1C(=O)c1c(F)cccc1F [Example O57]
[1]; 0.03 μM compound, Table 2
  CDK4 % Inhibition at 0.03 μM: −2%
HCT-116 cell line; HCT-116, Table 2
  HCT-116 % Inhibition at 0.25 μM: 41%
CDK2/Cyclin A; 0.03 μM compound
  CDK2 % Inhibition At 0.03 μM: 28%

## Nc1nc(NC2CCN(S(=O)(=O)CCCN3CCCC3)CC2)sc1C(=O)c1c(F)cccc1F [Example K8, 1-(4-Amino-2-{1-[3-(pyrrolidin-1-yl)propane-1 sulfonyl]-piperidin-4-ylamino}-thiazol-5-yl)-1-(2,6-difluoro-phenyl)-methanone.]
[1]
  Ki: 2.7 nM
HCT-116 cell line; first HCT-116 column (c4)
  IC50: 310 nM
HCT-116 cell line; second HCT-116 column (c5)
  IC50: 2900 nM
CDK2/Cyclin A
  Ki: 1.8 nM

## Nc1nc(NC2CCN(C(=O)c3ccc(F)cc3)CC2)sc1C(=O)c1c(F)cccc1F [Example R143]
[1]; at 0.03 μM
  CDK4 % Inhibition at 0.03 μM: 59%
HCT-116 cell line; HCT-116 cells, at 0.1 μM
  HCT-116 % Inhibition at 0.1 μM: 0%
HCT-116 cell line; HCT-116 cells
  HCT-116 5 Inhibition at 0.25 μM: 40
CDK2/Cyclin A; at 0.03 μM
  CDK2 % Inhibition at 0.03 μM: 30%

## Nc1nc(NC2CCN(C(=O)CC3CCCC3)CC2)sc1C(=O)c1c(F)cccc1F [Example R96]
[1]; at 0.03 μM
  CDK4 % Inhibition at 0.03 μM: −18%
HCT-116 cell line; HCT-116 cells, at 0.1 μM
  HCT-116 % Inhibition at 0.1 μM: 2%
HCT-116 cell line; HCT-116 cells
  HCT-116 5 Inhibition at 0.25 μM: 36
CDK2/Cyclin A; at 0.03 μM
  CDK2 % Inhibition at 0.03 μM: −20%

## CC[C@@H](NCCS(=O)(=O)N1CCC(Nc2nc(N)c(C(=O)c3c(F)cccc3F)s2)CC1)c1ccccc1 [Example K46, (4-Amino-2-{1-[2-(1 R-phenyl-propylamino)-ethanesulfonyl]-piperidin-4-ylamino}-thiazol-5-yl)-(2,6-difluoro-phenyl)-methanone]
[1]
  Ki: 2.1 nM
HCT-116 cell line; first HCT-116 column (c4)
  IC50: 130 nM
HCT-116 cell line; second HCT-116 column (c5)
  IC50: 260 nM
CDK2/Cyclin A
  Ki: 0.81 nM

## Nc1nc(NC2CCN(C(=O)c3ccc(Oc4cc(Cl)cc(Cl)c4)o3)CC2)sc1C(=O)c1c(F)cccc1F [Example R69]
[1]; at 0.03 μM
  CDK4 % Inhibition at 0.03 μM: 35%
HCT-116 cell line; HCT-116 cells, at 0.1 μM
  HCT-116 % Inhibition at 0.1 μM: 0%
HCT-116 cell line; HCT-116 cells
  HCT-116 5 Inhibition at 0.25 μM: 41
CDK2/Cyclin A; at 0.03 μM
  CDK2 % Inhibition at 0.03 μM: 29%

## CCC(CC)C(=O)N1CCC(Nc2nc(N)c(C(=O)c3c(F)cccc3F)s2)CC1 [Example R164]
[1]; at 0.03 μM
  CDK4 % Inhibition at 0.03 μM: 19%
HCT-116 cell line; HCT-116 cells, at 0.1 μM
  HCT-116 % Inhibition at 0.1 μM: 0%
HCT-116 cell line; HCT-116 cells
  HCT-116 5 Inhibition at 0.25 μM: 41
CDK2/Cyclin A; at 0.03 μM
  CDK2 % Inhibition at 0.03 μM: 9%

## Nc1nc(NC2CCN(C(=O)NCCc3ccc4c(c3)OCO4)CC2)sc1C(=O)c1c(F)cccc1F [Example O87]
[1]; 0.03 μM compound, Table 2
  CDK4 % Inhibition at 0.03 μM: 16%
HCT-116 cell line; HCT-116, Table 2
  HCT-116 % Inhibition at 0.25 μM: 44%
CDK2/Cyclin A; 0.03 μM compound
  CDK2 % Inhibition At 0.03 μM: 25%

## CSc1nccc(-c2ccc(S(=O)(=O)N3CCC(Nc4nc(N)c(C(=O)c5c(F)cccc5F)s4)CC3)s2)n1 [Example P72]
[1]; 0.03 μM compound, Table 3
  CDK4 % Inhibition at 0.03 μM: 61%
HCT-116 cell line; 0.1 μM compound, HCT-116, Table 3
  HCT-116 % Inhibition at 0.1 μM: 13%
HCT-116 cell line; HCT-116, Table 3
  HCT-116 % Inhibition at 0.25 μM: 35%
CDK2/Cyclin A; 0.03 μM compound, Table 3
  CDK2 % Inhibition at 0.03 μM: 61%

## Nc1nc(NC2CCN(S(=O)(=O)c3ccc(F)cc3)CC2)sc1C(=O)c1c(F)cccc1F [Example F17, 1-{4-Amino-2-[1-(4-fluoro-benzenesulfonyl)-piperidin-4-ylamino]-thiazol-5-yl}1-(2,6-difluoro-phenyl)-methanone]
[1]
  Ki: 1.4 nM
HCT-116 cell line; first HCT-116 column (c4)
  IC50: 70 nM
HCT-116 cell line; second HCT-116 column (c5)
  IC50: 230 nM
CDK2/Cyclin A
  Ki: < 1 nM

## Cc1ccc(O)c(C(=O)N2CCC(Nc3nc(N)c(C(=O)c4c(F)cccc4F)s3)CC2)c1 [Example R122]
[1]; at 0.03 μM
  CDK4 % Inhibition at 0.03 μM: 67%
HCT-116 cell line; HCT-116 cells, at 0.1 μM
  HCT-116 % Inhibition at 0.1 μM: 0%
HCT-116 cell line; HCT-116 cells
  HCT-116 5 Inhibition at 0.25 μM: 48
CDK2/Cyclin A; at 0.03 μM
  CDK2 % Inhibition at 0.03 μM: 61%
